Laboratory results as given in ChEMBL document CHEMBL5724914, “Linking interpersonal differences in gut microbiota composition and drug biotransformation activity” (2024).

Assays:
[1] = (§1) The drug is tested on WLS-350 corresponding to human gut metagenome with ENA study accession number: PRJEB37062 and ENA sample accession number: ERS12561789 for biotransformation under anaerobic condition. The drug concentrations were measured over 9 timepoints collected between 0 and 24 hours of incubation by liquid-chromatography-coupled mass spectrometry (LC–MS); details: 2 µM
[2] = human gut metagenome, 24 h, 2 µM
[3] = human gut metagenome, 24 h, 2 µM; remark: listed apart in the source
[4] = human gut metagenome, 24 h, 2 µM; remark: listed apart in the source
[5] = human gut metagenome, 24 h, 2 µM; remark: listed apart in the source
[6] = as §1, with “WLS-010” for “WLS-350”, “ERS12561743” for “ERS12561789”; details: 2 µM
[7] = human gut metagenome, 24 h, 2 µM; remark: listed apart in the source
[8] = human gut metagenome, 24 h, 2 µM; remark: listed apart in the source
[9] = as §1, with “WLS-170” for “WLS-350”, “ERS12561762” for “ERS12561789”; details: 2 µM
[10] = human gut metagenome, 24 h, 2 µM; remark: listed apart in the source
[11] = as §1, with “WLS-069” for “WLS-350”, “ERS12561748” for “ERS12561789”; details: 2 µM
[12] = human gut metagenome, 24 h, 2 µM; remark: listed apart in the source
[13] = as §1, with “WLS-310” for “WLS-350”, “ERS12561785” for “ERS12561789”; details: 2 µM
[14] = as §1, with “WLS-086” for “WLS-350”, “ERS12561752” for “ERS12561789”; details: 2 µM
[15] = as §1, with “WLS-039” for “WLS-350”, “ERS12561746” for “ERS12561789”; details: 2 µM
[16] = as §1, with “Z-028” for “WLS-350”, “mouse” for “human”, “ERS12561827” for “ERS12561789”; details: 2 µM
[17] = as §1, with “Z-006” for “WLS-350”, “mouse” for “human”, “ERS12561806” for “ERS12561789”; details: 2 µM
[18] = as §1, with “Z-017” for “WLS-350”, “mouse” for “human”, “ERS12561816” for “ERS12561789”; details: 2 µM
[19] = as §1, with “Z-018” for “WLS-350”, “pig” for “human”, “ERS12561817” for “ERS12561789”; details: 2 µM
Also: call rule not given here.

Structure (SMILES) | Bacterial Biotransformation [1] | Bacterial Biotransformation [2] | Bacterial Biotransformation [3] | Bacterial Biotransformation [4] | Bacterial Biotransformation [5] | Bacterial Biotransformation [6] | Bacterial Biotransformation [7] | Bacterial Biotransformation [8] | Bacterial Biotransformation [9] | Bacterial Biotransformation [10] | Bacterial Biotransformation [11] | Bacterial Biotransformation [12] | Bacterial Biotransformation [13] | Bacterial Biotransformation [14] | Bacterial Biotransformation [15] | Bacterial Biotransformation [16] | Bacterial Biotransformation [17] | Bacterial Biotransformation [18] | Bacterial Biotransformation [19]
COC(=O)C1=C(C)NC(C)=C(C(=O)OC(C)C)C1c1cccc2nonc12 (stereo not drawn) [ISRADIPINE] | Compound metabolized | Compound metabolized | Compound metabolized | Compound metabolized | Compound metabolized | Compound metabolized | Compound metabolized | Compound metabolized | Compound metabolized | Compound NOT metabolized | Compound metabolized | Compound metabolized | Compound metabolized | Compound metabolized | – | – | – | – | –
CN(C(=O)CN(CCO)CC(=O)N(C)C(C)(C)Cc1ccccc1)C(C)(C)Cc1ccccc1 [OXETHAZAINE] | Compound metabolized | Compound metabolized | Compound metabolized | Compound metabolized | Compound metabolized | Compound metabolized | Compound metabolized | Compound metabolized | Compound metabolized | Compound NOT metabolized | Compound metabolized | Compound metabolized | Compound metabolized | Compound metabolized | Compound metabolized | – | – | – | –
CN1CCN(CC/C=C2/c3ccccc3Sc3ccc(S(=O)(=O)N(C)C)cc32)CC1 [THIOTHIXENE] | Compound metabolized | Compound metabolized | Compound metabolized | Compound metabolized | Compound metabolized | Compound metabolized | Compound metabolized | Compound metabolized | Compound metabolized | Compound metabolized | Compound metabolized | Compound metabolized | Compound metabolized | Compound metabolized | Compound metabolized | – | – | – | –
CN1C(=O)CC(C)(c2ccccc2)C1=O (stereo not drawn) [METHSUXIMIDE] | Compound NOT metabolized | Compound NOT metabolized | Compound NOT metabolized | Compound NOT metabolized | Compound metabolized | Compound NOT metabolized | Compound NOT metabolized | Compound NOT metabolized | Compound metabolized | Compound NOT metabolized | Compound NOT metabolized | Compound NOT metabolized | Compound NOT metabolized | Compound metabolized | Compound NOT metabolized | Compound NOT metabolized | Compound NOT metabolized | Compound NOT metabolized | Compound NOT metabolized
CCC1(c2ccc(N)cc2)CCC(=O)NC1=O (stereo not drawn) [AMINOGLUTETHIMIDE] | Compound NOT metabolized | Compound NOT metabolized | Compound NOT metabolized | Compound NOT metabolized | Compound NOT metabolized | Compound NOT metabolized | Compound NOT metabolized | Compound NOT metabolized | Compound NOT metabolized | Compound NOT metabolized | Compound NOT metabolized | Compound NOT metabolized | Compound NOT metabolized | Compound NOT metabolized | Compound NOT metabolized | – | Compound NOT metabolized | Compound NOT metabolized | Compound metabolized
OC(CCN1CCCCC1)(c1ccccc1)C1CC2C=CC1C2 (stereo not drawn) [BIPERIDEN] | Compound NOT metabolized | Compound NOT metabolized | Compound NOT metabolized | Compound metabolized | Compound metabolized | Compound NOT metabolized | Compound metabolized | Compound NOT metabolized | Compound metabolized | Compound NOT metabolized | Compound NOT metabolized | Compound NOT metabolized | Compound metabolized | Compound metabolized | Compound NOT metabolized | – | – | – | –
CS(=O)(=O)O.O.O.O.O=C1Cc2cc(CCN3CCN(c4nsc5ccccc45)CC3)c(Cl)cc2N1 [ZIPRASIDONE MESYLATE] | Compound metabolized | Compound NOT metabolized | Compound metabolized | Compound metabolized | Compound metabolized | Compound NOT metabolized | Compound metabolized | Compound metabolized | Compound metabolized | Compound NOT metabolized | Compound metabolized | Compound metabolized | Compound metabolized | Compound metabolized | Compound metabolized | – | – | – | –
CC(=O)O[C@]1(C(C)=O)CC[C@H]2[C@@H]3C=C(Cl)C4=CC(=O)[C@@H]5C[C@@H]5[C@]4(C)[C@H]3CC[C@@]21C [CYPROTERONE ACETATE] | Compound metabolized | Compound metabolized | Compound metabolized | Compound metabolized | Compound metabolized | Compound metabolized | Compound metabolized | Compound metabolized | Compound metabolized | Compound metabolized | Compound metabolized | Compound metabolized | Compound metabolized | Compound metabolized | Compound metabolized | – | – | – | –
CN1C[C@H](C(=O)N[C@]2(C)O[C@@]3(O)[C@@H]4CCCN4C(=O)[C@H](Cc4ccccc4)N3C2=O)C=C2c3cccc4[nH]cc(c34)C[C@H]21.CN1C[C@H](C(=O)N[C@]2(C)O[C@@]3(O)[C@@H]4CCCN4C(=O)[C@H](Cc4ccccc4)N3C2=O)C=C2c3cccc4[nH]cc(c34)C[C@H]21.O=C(O)C(O)C(O)C(=O)O [ERGOTAMINE TARTRATE] | Compound metabolized | Compound metabolized | Compound metabolized | Compound metabolized | Compound metabolized | Compound metabolized | Compound metabolized | Compound metabolized | Compound metabolized | Compound metabolized | Compound metabolized | – | Compound metabolized | Compound metabolized | Compound metabolized | – | Compound NOT metabolized | – | –
Cc1ccc(/C(=C\CN2CCCC2)c2ccccn2)cc1 [TRIPROLIDINE] | Compound NOT metabolized | Compound NOT metabolized | Compound NOT metabolized | Compound metabolized | Compound metabolized | Compound NOT metabolized | Compound metabolized | Compound NOT metabolized | Compound metabolized | Compound NOT metabolized | Compound NOT metabolized | Compound NOT metabolized | Compound NOT metabolized | Compound NOT metabolized | Compound NOT metabolized | Compound NOT metabolized | Compound NOT metabolized | – | –
